# PubChem BioAssay (NCI)
# Values joined by “and” are separate entries in the source; they are usually repeats but may differ in a detail not shown here. Equal entries are not always repeated.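 96-well plates; 48 h exposure; 5 concentrations. Endpoints by linear interpolation between flanking doses. Not reached: highest tested concentration assigned. At the GI50, growth is halved. TGI: total growth inhibition.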
# Assays:
# Experiment in all cases: NCI tumour cell line growth inhibition, 48 h
# SNB-75 CNS = tested on: SNB-75 CNS
# NCI-H460 lung = tested on: NCI-H460 lung
# COLO 205 colon = tested on: COLO 205 colon
# PC-3 prostate = tested on: PC-3 prostate
# NCI-H23 lung = tested on: NCI-H23 lung
# K-562 leukemia = tested on: K-562 leukemia
# MDA-MB-435 = tested on: MDA-MB-435
# CAKI-1 renal = tested on: CAKI-1 renal
# SK-MEL-5 melanoma = tested on: SK-MEL-5 melanoma
# DU-145 prostate = tested on: DU-145 prostate
Compound,GI50 (SNB-75 CNS) [µM],TGI (SNB-75 CNS),GI50 (NCI-H460 lung) [µM],TGI (NCI-H460 lung) [µM],GI50 (COLO 205 colon) [µM],TGI (COLO 205 colon),GI50 (PC-3 prostate) [µM],TGI (PC-3 prostate) [µM],GI50 (NCI-H23 lung) [µM],TGI (NCI-H23 lung),GI50 (K-562 leukemia) [µM],TGI (K-562 leukemia),GI50 (MDA-MB-435) [µM],TGI (MDA-MB-435) [µM],GI50 (CAKI-1 renal) [µM],TGI (CAKI-1 renal),GI50 (SK-MEL-5 melanoma) [µM],TGI (SK-MEL-5 melanoma),GI50 (DU-145 prostate) [µM],TGI (DU-145 prostate) [µM]
O=C1C(=O)c2c(nc3ccc(C(F)(F)F)cn23)-c2ccccc21,0.202,0.465 µM,0.466,1.08,1.63,3.52 µM,0.21,0.761,0.175,0.477 µM,0.175,0.787 µM,0.179,0.324,0.162,0.297 µM,0.171,0.31 µM,0.185,0.345
CC(C)Cc1cnc(CC(C)C)c(=O)[nH]1,–,> 100 µM,–,> 100,–,> 100 µM,–,> 100,–,> 100 µM,–,> 100 µM,–,> 100,–,> 100 µM,–,> 100 µM,–,> 100
N#Cc1nc(CCc2nc(C#N)c(N)o2)oc1N,–,> 10 µM,–,> 10,–,> 10 µM,–,> 10,–,> 10 µM,–,> 10 µM,–,> 10,–,> 10 µM,–,> 10 µM,–,> 10
COC1=CC(c2ccc[nH]2)=N/C1=C\c1[nH]c(C)c(C(=O)CCCCCCCCC(=O)O[C@H]2CC[C@H]3C4CCc5cc(O)ccc5C4CC[C@]23C)c1C (stereo partly specified),0.29,2.79 µM,0.536,> 50,0.332,> 50 µM,0.327,> 50,1.85,> 50 µM,0.267,> 50 µM,0.272,> 24.2,1.1,> 28.4 µM,0.139,0.456 µM,0.387,> 50
Nc1cc2c3c(cccc3c1)C(=O)N(CCN1CCCC1)C2=O,3.4,17 µM,0.666,> 24.5,1.68,10.3 µM,3.89,> 66.6,3.33,22.8 µM,3.75,> 37.6 µM,4.06,14.8,1.43,5.83 µM,1.65,4.01 µM,2.01,37.4
[N-]=[N+]=CC(=O)CCC(N)C(=O)O (stereo unspecified),39.4,191 µM,2.93,147,0.812,> 128 µM,29.8,> 250,6.94,> 215 µM,3.27,> 250 µM,7.2,> 250,10.9,84.5 µM,1.48,105 µM,5.58,> 250
COc1ccc2[nH]c(C(=O)N3CCN(C(=O)OCc4ccc5c(Cl)cc(Cl)c(O)c5n4)CC3)cc2c1,1.08,2.4 µM,1.18,2.76,0.85,2.48 µM,1.06,2.67,1.7,3.47 µM,0.543,4.41 µM,1.2,2.72,0.357,1.65 µM,1.66,3.03 µM,1.19,2.53
Cc1ccc(/C(=N/Nc2ccc([N+](=O)[O-])cc2)Sc2cc(Cl)c(C)cc2S(N)(=O)=O)cc1,2.06,3.94 µM,2.55,9.07,2.98,> 23.2 µM,1.79,4.47,1.64,3.59 µM,3.11,> 38.4 µM,1.73,3.89,1.61,3.27 µM,1.78,5.56 µM,1.75,4.1
C[C@@]1(F)[C@H](O)[C@@H](CO)O[C@H]1n1ccc(=O)[nH]c1=O,> 100,> 100 µM,> 100,> 100,> 100,> 100 µM,> 100,> 100,> 100,> 100 µM,> 100,> 100 µM,> 100,> 100,> 100,> 100 µM,> 100,> 100 µM,> 100,> 100
CCCCCCCC(=O)OCC/C=C/C1OC1C1OC(=O)/C=C\C=C\C(=O)N(C(C)=O)C(=O)/C=C(/C)CCC2OC2C1OC(=O)NC(C)=O (stereo unspecified),4.79,17.9 µM,11.4,> 25,3.27,6.86 µM,3.15,8.04,5.07,12.8 µM,4.78,> 25 µM,5.85,24.8,15,> 25 µM,7.03,> 25 µM,4.45,16.2
NCCO/C=C/C(N)C(=O)O (stereo unspecified),–,> 100 µM,–,> 100,–,> 100 µM,–,> 100,–,> 100 µM,–,> 100 µM,–,> 100,–,> 100 µM,–,> 100 µM,–,> 100
CC1(C)CC(C)(C)c2cc(NC(=S)Nc3ccc([N+](=O)[O-])cc3)ccc2S1,16.7,48.7 µM,27.6,> 69.3,13,59.4 µM,9.69,22.4,12.2,50.2 µM,10.8,> 60 µM,11.8,30.5,11.5,32.1 µM,9.23,19.1 µM,13.1,34.6
COc1ccc(-c2ccc(OC)c(OC)c2OC)cc1,3.34,> 100 µM,2.7,> 48,1.74,6.83 µM,3.62,> 100,4.19,> 100 µM,0.431,> 100 µM,0.239,0.833,1.77,> 100 µM,2.68,> 45.2 µM,2.83,19.3
CN(C)CCC(=O)Nc1ccc(-n2cc(-c3cccc(NC(=S)Nc4cccc(-c5cn(-c6ccc(NC(=O)CCN(C)C)cc6)nn5)c4)c3)nn2)cc1,25.6,65.6 µM,26.6,96.6,14.2,45.7 µM,85.9,> 100,57.2,> 100 µM,4.49,> 100 µM,26.7,> 100,> 100,> 100 µM,43.9,> 100 µM,> 100,> 100
COc1cccc2c1C(=O)c1c(O)c3c(c(O)c1C2=O)C[C@@](O)(C(C)=O)CC3OC1CC(OC2CC(N)C(O)C(C)O2)C(O)C(C)O1 (stereo partly specified),–,85.7 µM,–,> 100,–,> 100 µM,–,> 100,–,> 100 µM,–,> 100 µM,–,> 100,–,> 100 µM,–,> 100 µM,–,> 100
Cn1c(COC(=O)NCCn2ccnc2)nc2c(N3CCOCC3)nc(-c3ccccc3)nc21,0.759,2.15 µM,1.42,2.91,1.15,2.97 µM,0.751,2.14,1.52,3.08 µM,0.347,2 µM,0.694,2.08,0.343,1.55 µM,1.46,2.81 µM,0.888,2.13
O=C1NC(=NCCc2ccc(Cl)cc2)S/C1=C\c1ccc2ncccc2c1,6.77,> 21.6 µM,17.8,> 25,15.3,> 25 µM,> 25,> 25,23.3,> 25 µM,> 25,> 25 µM,10,> 25,> 19.5,> 25 µM,15.8,> 25 µM,24.4,> 25
O=c1c(-c2ccc3c(c2)OCO3)coc2c3c(ccc12)OCO3,–,49.7 µM,–,32.1,–,> 100 µM,–,> 100,–,40 µM,–,> 100 µM,–,> 100,–,> 100 µM,–,> 100 µM,–,> 100
CCOC(=O)Nc1ccc2nc(-c3cscn3)[nH]c2c1,2.84,29.4 µM,4.05,> 100,3.64,18.9 µM,10.4,> 100,8.47,> 100 µM,0.942,> 100 µM,0.398,1.93,5.63,> 100 µM,3.33,> 49.1 µM,9.61,> 100
CC(C)(C)C[C@H]1N[C@@H](C(=O)NC2CCC(O)CC2)[C@H](c2cccc(Cl)c2F)[C@@]12C(=O)Nc1cc(Cl)ccc12 (stereo partly specified),3.78,17.9 µM,0.678,13.4,3.67,16 µM,3.65,13.5,11.1,29.2 µM,4.15,18.7 µM,4.8,16.6,0.162,12.4 µM,1.41,3.19 µM,11.8,24.3
O=C1c2cccc3cccc(c23)C(=O)N1CCCCCN1CCN(CCN=c2cc3n(-c4ccc(Cl)cc4)c4ccccc4nc-3cc2Nc2ccc(Cl)cc2)CC1,14.5,39.6 µM,13.2,> 50,2.38,> 50 µM,6.36,28.4,8.52,22.3 µM,6.92,33.3 µM,9.21,21.4,6.33,20.5 µM,7.46,18.1 µM,38.3,> 50
Cn1c(COC(=O)NCCc2ccccn2)nc2c(N3CCOCC3)nc(Cl)nc21,1.38,11.8 µM,1.62,3.63,1.72,3.61 µM,1.64,3.56,2,4.7 µM,1.63,75.2 µM,1.46,3.46,0.974,2.16 µM,1.74,3.29 µM,1.59,3.11
C=C1C(=O)O[C@@H]2/C=C(/C)[C@@H](OC(C)=O)C/C=C(\C)C(O)[C@@H](OC(=O)/C(C)=C\C)C12 (stereo partly specified),–,> 100 µM,–,> 100,–,32 µM,–,> 100,–,> 100 µM,–,73.3 µM,–,57.5,–,54.4 µM,–,32.1 µM,–,> 100
Clc1ccccc1C(Nc1cnccn1)Nc1cnccn1,–,> 100 µM,–,> 100,–,> 100 µM,–,> 100,–,> 100 µM,–,> 100 µM,–,> 100,–,> 100 µM,–,> 100 µM,–,> 100
CC1CCC2C(C)C(=O)OC2C2(C)C(=O)C=CC12 (stereo unspecified),–,> 10 µM,–,> 10,–,> 10 µM,–,> 10,–,> 10 µM,–,> 10 µM,–,> 10,–,> 10 µM,–,> 10 µM,–,> 10
COc1ccc(-n2c(=S)sc3c(Cl)nc(C)nc32)c(OC)c1,1.97,4.26 µM,3.12,9.04,3.83,13.3 µM,2.37,5.91,2.44,5.87 µM,1.19,3.79 µM,2.14,3.93,6.16,19.3 µM,–,–,1.84,3.25
C[C@@H]1C[C@@H]([C@H](O)CC2CC(=O)NC(=O)C2)C(=O)[C@@H](C)C1,0.333,4.93 µM and 1.43 µM,0.234,–,0.224,2 µM and 1.47 µM,0.243,4.51,0.274,4.78 µM and 0.941 µM,0.165,11.9 µM and 2.93 µM,0.233,4.09,0.188,5.17 µM and 1.83 µM,0.199,2.18 µM and 0.494 µM,0.247,–
